{"source": "ChEMBL document CHEMBL1201862", "about": "“PubChem BioAssay data set” (2004)", "key": {"[1]": {"assay": "OV-90 cell viability loss – plate reader, dry powder, SA8, PAX8 inhibitor project, dose response (AID 743149)", "format": "functional, cell-based"}, "Paired box protein Pax-8": {"target": "Paired box protein Pax-8 (Homo sapiens, UniProt Q06710)", "sequence (Q06710 whole entry)": "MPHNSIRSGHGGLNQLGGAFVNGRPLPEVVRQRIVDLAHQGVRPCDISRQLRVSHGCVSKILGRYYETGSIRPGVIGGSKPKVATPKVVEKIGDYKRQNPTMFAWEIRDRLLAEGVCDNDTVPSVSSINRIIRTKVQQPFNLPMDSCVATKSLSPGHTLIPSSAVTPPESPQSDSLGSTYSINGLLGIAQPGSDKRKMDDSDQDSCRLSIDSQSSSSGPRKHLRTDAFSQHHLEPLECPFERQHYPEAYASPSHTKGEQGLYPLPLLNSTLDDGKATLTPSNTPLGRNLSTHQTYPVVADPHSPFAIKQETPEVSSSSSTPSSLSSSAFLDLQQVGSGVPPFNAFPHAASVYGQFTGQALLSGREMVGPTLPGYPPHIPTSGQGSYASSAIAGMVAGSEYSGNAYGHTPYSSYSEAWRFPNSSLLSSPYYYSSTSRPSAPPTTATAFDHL", "assay": "PAX8 transcriptional activity inhibition in RMG-I – RMG-I cells, luciferase, cherry-pick, dose response (AID 687027);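 further: luciferase reporter driven by Pax8 target thyroperoxidase promoter measured by SteadyGlo luminescence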", "format": "functional, cell-based"}, "[2]": {"assay": "PAX8-dependent cell viability loss – plate reader, dry powder, dose response (AID 743049)", "format": "functional, cell-based"}, "[3]": {"assay": "A2780 cell killing – plate reader, dry powder samples, cytotoxicity control, dose response (AID 743046)", "format": "functional, cell-based"}, "[4]": {"assay": "IGROV1 cell killing – plate reader, dry powder samples, PAX8 inhibitor project, dose response (AID 743043)", "format": "functional, cell-based", "settings": "IGROV-1"}, "[5]": {"assay": "OVCAR-3 cell viability loss – plate reader, dry powder samples, PAX8 inhibitor project, dose response (AID 743044)", "format": "functional, cell-based"}, "[6]": {"assay": "general cell-killing toxicity readout – plate reader, dry powder samples, cytotoxicity control for PAX8 inhibitor project, dose response (AID 743021)", "format": "functional, cell-based"}, "[7]": {"assay": "A549 cell cytotoxicity, dose response, cytotoxicity control, plate reader, cherry-pick, antagonist series (AID 743412)", "format": "functional, cell-based"}, "[8]": {"assay": "inhibition of bursicon-driven LGR2 cAMP signaling – cell-based, HEK293, CRE-luciferase reporter, cherry pick, dose response (AID 743342)", "format": "functional"}, "[9]": {"assay": "inhibitors of non-replicating M. tuberculosis, dose response, luciferase, dry powder (AID 651620)", "format": "functional", "settings": "Mycobacterium tuberculosis"}, "[10]": {"assay": "growth inhibition of replicating M. tuberculosis, dose response, counter-screen, dry powder, IC90 (AID 651617)", "format": "functional", "settings": "Mycobacterium tuberculosis"}, "[11]": {"assay": "inhibitors of non-replicating M. tuberculosis, dose response, luciferase, dry powder (AID 651619)", "format": "functional", "settings": "Mycobacterium tuberculosis"}, "Protein Wnt-3a": {"target": "Protein Wnt-3a (Mus musculus, UniProt P27467)", "sequence (P27467 whole entry)": "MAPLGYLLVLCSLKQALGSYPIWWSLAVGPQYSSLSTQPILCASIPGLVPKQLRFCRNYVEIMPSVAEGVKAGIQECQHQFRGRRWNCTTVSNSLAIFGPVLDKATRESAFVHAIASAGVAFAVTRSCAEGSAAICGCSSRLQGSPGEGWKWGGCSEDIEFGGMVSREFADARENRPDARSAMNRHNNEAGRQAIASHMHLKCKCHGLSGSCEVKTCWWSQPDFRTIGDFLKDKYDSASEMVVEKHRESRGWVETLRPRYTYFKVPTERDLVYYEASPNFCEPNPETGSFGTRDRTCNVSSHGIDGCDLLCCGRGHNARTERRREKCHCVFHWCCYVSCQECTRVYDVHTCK", "assay": "SAR analysis of small molecule antagonists of Gli-SUFU in a Wnt3a luminescent reporter assay.", "format": "functional"}, "[12]": {"target": "Sphingosine 1-phosphate receptor 1 (Homo sapiens, UniProt P21453)", "sequence (P21453 whole entry)": "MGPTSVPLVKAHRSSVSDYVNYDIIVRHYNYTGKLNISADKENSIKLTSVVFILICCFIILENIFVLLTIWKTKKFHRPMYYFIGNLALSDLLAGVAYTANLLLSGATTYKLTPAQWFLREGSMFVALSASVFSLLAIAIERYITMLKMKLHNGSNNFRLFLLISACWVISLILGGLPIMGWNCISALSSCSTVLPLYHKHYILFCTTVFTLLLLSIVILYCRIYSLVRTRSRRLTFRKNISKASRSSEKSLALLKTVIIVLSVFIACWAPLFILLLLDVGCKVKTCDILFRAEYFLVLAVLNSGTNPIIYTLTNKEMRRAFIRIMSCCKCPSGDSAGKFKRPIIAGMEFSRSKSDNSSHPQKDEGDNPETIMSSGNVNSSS", "assay": "Late-stage counterscreen for antagonists of kappa opioid receptor 1 (OPRK1): fluorescence-based cell-based dose response assay to identify antagonists of Sphingosine 1-Phosphate Receptor 1 (S1P1).", "format": "functional"}, "Mu-type opioid receptor": {"target": "Mu-type opioid receptor (Homo sapiens, UniProt P35372)", "sequence (P35372 whole entry)": "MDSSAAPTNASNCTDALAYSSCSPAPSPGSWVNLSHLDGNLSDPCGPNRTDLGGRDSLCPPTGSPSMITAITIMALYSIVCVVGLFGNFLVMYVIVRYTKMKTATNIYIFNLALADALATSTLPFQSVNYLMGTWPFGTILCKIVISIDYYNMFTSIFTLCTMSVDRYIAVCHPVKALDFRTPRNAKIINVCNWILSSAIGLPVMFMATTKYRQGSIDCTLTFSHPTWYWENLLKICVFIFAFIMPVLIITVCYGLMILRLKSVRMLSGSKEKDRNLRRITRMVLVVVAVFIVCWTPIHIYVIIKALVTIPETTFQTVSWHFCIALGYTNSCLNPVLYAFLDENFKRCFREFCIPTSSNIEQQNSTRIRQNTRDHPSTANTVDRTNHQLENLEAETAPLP", "assay": "Late-stage results from the probe development effort to identify antagonists of OPRK1: luminescence-based cell-based dose response OPRM1 counterscreen, Set 2.", "format": "functional"}, "[13]": {"target": "Kappa-type opioid receptor (Homo sapiens, UniProt P41145)", "sequence (P41145 whole entry)": "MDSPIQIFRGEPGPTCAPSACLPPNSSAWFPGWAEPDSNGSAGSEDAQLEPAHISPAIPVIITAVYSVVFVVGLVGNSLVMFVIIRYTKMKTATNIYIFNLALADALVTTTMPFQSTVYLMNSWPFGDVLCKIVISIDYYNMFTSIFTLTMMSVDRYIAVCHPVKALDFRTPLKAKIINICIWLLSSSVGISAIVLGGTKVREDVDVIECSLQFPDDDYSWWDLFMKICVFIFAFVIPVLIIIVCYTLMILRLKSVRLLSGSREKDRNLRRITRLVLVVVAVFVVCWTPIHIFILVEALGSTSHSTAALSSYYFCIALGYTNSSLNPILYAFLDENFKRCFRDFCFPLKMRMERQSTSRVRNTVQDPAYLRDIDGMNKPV", "assay": "Late-stage fluorescence-based cell-based dose response assay for antagonists of kappa opioid receptor 1 (OPRK1).", "format": "functional"}, "[14]": {"target": "Delta-type opioid receptor (Homo sapiens, UniProt P41143)", "sequence (P41143 whole entry)": "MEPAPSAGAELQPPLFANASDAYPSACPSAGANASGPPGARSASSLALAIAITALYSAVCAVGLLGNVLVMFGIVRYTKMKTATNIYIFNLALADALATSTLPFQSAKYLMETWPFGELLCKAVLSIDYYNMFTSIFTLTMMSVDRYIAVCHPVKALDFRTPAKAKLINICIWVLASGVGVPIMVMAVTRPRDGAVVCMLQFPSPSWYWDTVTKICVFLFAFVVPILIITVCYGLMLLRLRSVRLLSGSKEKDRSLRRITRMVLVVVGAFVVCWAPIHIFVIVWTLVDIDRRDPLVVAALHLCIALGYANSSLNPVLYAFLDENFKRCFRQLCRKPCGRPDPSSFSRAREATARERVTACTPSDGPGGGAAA", "assay": "Late-stage results from the probe development effort to identify antagonists of OPRK1: fluorescence-based cell-based dose response OPRD1 counterscreen, Set 2.", "format": "functional"}, "[15]": {"target": "Potassium channel subfamily K member 3 (Homo sapiens, UniProt O14649)", "sequence (O14649 whole entry)": "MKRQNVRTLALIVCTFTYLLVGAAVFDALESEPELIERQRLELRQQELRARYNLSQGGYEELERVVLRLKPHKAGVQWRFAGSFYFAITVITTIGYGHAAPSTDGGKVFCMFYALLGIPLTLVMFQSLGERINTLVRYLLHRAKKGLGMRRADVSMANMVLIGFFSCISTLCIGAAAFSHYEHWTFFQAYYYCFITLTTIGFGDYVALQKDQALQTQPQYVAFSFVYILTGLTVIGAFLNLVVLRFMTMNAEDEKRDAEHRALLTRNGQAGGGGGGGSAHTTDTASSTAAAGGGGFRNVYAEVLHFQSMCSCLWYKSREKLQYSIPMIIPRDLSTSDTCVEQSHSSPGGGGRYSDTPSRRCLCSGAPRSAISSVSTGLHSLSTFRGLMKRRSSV", "assay": "inhibition of human KCNK3 channel flux – CHO cells, FluxOR thallium flux, SAR follow-up (AID 652212)", "format": "functional"}, "[16]": {"target": "Potassium channel subfamily K member 9 (Homo sapiens, UniProt Q9NPC2)", "sequence (Q9NPC2 whole entry)": "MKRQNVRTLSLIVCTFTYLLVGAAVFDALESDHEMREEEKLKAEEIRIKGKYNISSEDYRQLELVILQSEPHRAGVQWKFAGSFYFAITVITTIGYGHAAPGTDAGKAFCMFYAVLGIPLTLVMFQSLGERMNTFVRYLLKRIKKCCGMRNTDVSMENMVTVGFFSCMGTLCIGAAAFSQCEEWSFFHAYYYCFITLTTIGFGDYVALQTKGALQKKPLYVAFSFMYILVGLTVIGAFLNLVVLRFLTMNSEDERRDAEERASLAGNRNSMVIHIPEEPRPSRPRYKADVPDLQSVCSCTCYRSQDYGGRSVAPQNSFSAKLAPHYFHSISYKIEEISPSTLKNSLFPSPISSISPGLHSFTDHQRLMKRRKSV", "assay": "KCNK9 flux blockade, concentration-response – cell-based, FluxOR thallium flux, selectivity assay for TASK1 inhibitor project, SAR follow-up (AID 652211);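 further: potency is for inhibitors of the channel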", "format": "functional"}, "Albumin": {"target": "Albumin (Bos taurus, UniProt P02769)", "sequence (P02769 whole entry)": "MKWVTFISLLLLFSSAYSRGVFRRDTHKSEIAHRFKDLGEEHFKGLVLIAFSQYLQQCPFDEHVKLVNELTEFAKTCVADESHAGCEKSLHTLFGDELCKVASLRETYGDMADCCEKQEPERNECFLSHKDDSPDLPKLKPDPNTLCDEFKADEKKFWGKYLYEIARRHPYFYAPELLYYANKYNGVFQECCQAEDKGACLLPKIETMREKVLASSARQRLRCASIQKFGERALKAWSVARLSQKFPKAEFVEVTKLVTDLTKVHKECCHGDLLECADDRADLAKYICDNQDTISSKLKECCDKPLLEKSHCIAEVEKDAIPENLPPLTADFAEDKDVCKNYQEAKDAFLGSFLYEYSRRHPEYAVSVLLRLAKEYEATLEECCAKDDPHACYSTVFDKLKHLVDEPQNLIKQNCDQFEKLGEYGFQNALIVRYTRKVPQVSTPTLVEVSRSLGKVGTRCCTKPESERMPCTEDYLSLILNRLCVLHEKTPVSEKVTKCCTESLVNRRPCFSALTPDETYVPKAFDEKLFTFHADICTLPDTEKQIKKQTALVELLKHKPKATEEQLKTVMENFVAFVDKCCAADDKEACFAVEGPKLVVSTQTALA", "assay": "Counterscreen for inhibitors of T-cell receptor (TCR)-CD3 interaction: Fluorescence-based biochemical high throughput dose response assay to identify inhibitors of T-cell receptor (TCR)-CD3 interaction using a TAMRA-labeled BSA probe.", "format": "functional"}}, "note": "The source made the active and inactive calls.", "data": [{"smiles": "C[C@H]1CN([C@@H](C)CO)C(=O)CCCn2nncc2CO[C@@H]1CN(C)C(=O)Nc1ccc(-c2cccs2)cc1", "values": [{"measurement": "AC50", "setting": "[1]", "value": "> 70 µM (inactive)"}, {"measurement": "AC50", "setting": "Paired box protein Pax-8", "value": "0.48 µM (active)"}, {"measurement": "AC50", "setting": "[2]", "value": "7.43 µM (active)"}]}, {"smiles": "COc1ccc(NC(=O)N2CC(=O)N3[C@H](C2)[C@H](c2ccc(/C=C/c4ccccc4)cc2)[C@@H]3CO)cc1", "values": [{"measurement": "AC50", "setting": "[3]", "value": "26 µM (active)"}, {"measurement": "AC50", "setting": "[4]", "value": "30.6 µM (active)"}, {"measurement": "AC50", "setting": "[5]", "value": "12.4 µM (active)"}, {"measurement": "AC50", "setting": "[6]", "value": "23.2 µM (active)"}, {"measurement": "AC50", "setting": "Paired box protein Pax-8", "value": "5.72 µM (active)"}]}, {"smiles": "C[C@H](CO)N1C[C@H](C)[C@H](CN(C)C(=O)Nc2ccccc2)OCCCC[C@H](C)Oc2ccc(NC(=O)Nc3ccccc3)cc2C1=O", "values": [{"measurement": "AC50", "setting": "[7]", "value": "> 52 µM (inactive)"}, {"measurement": "AC50", "setting": "[8]", "value": "16.9 µM (active)"}]}, {"smiles": "Fc1cccc(-c2nnc(SCc3ccccn3)o2)c1", "values": [{"measurement": "IC90", "setting": "[9]", "value": "4 µM (active)"}, {"measurement": "IC90", "setting": "[10]", "value": "125 µM (active)"}, {"measurement": "IC90", "setting": "[11]", "value": "4 µM (active)"}]}, {"smiles": "Cc1nc(NC(=O)c2ccccc2)cc(N(C)C)n1", "values": [{"measurement": "IC50", "setting": "Protein Wnt-3a", "value": "> 21.8 µM (inactive)"}]}, {"smiles": "O=C(c1cnn(-c2ccc(Cl)cc2)c1C(F)(F)F)N1CCN(c2ncnc3ccsc23)CC1", "values": [{"measurement": "IC50", "setting": "[12]", "value": "> 50 µM (inactive)"}, {"measurement": "IC50", "setting": "Mu-type opioid receptor", "value": "> 50 µM (inactive)"}, {"measurement": "IC50", "setting": "[13]", "value": "1.05 µM (active)"}, {"measurement": "IC50", "setting": "[14]", "value": "> 50 µM (inactive)"}]}, {"smiles": "COc1ccccc1NC(=O)c1cccc(NC(=O)c2ccccc2)c1", "values": [{"measurement": "IC50", "setting": "[15]", "value": "0.064 µM (active)"}, {"measurement": "IC50", "setting": "[16]", "value": "1.41 µM (active)"}]}, {"smiles": "O=c1c2c(-c3ccc(Cl)cc3)csc2ncn1/N=C/c1cccc([N+](=O)[O-])c1O", "values": [{"measurement": "IC50", "setting": "Albumin", "value": "> 94.1 µM (inactive)"}]}]}
